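1) Cells in 96-well plates. 2) Compound, 48 h, 5 concentrations. 3) Linear interpolation between surrounding doses. 4) Unreached endpoint = highest concentration. At the GI50, growth is halved.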 Activity calls are given as the source filed them. Cut-off read from the data, not from the text of the source: active = GI50 up to about 1.1 µM and inactive = higher. *1 amine or outer side, *2 acyl side, *3 side chain or, on linkers, in order; H or OH if unused. Where a SMILES comes first, the peptide text is derived from it. Bridges are numbered along the chain shown (N, C = ends). Roman numbers before positions name the chains, in order. [ ]: non-standard residue; d: D form. Actinocin(9to1) = Cc1c2oc3c(C)ccc(C(=O)[*:1])c3nc-2c(C(=O)[*:2])c(N)c1=O; Hyp = O=C(O)[CH]1C[CH](O)CN1; NMeV = CN[CH](C(=O)O)C(C)C; Sar = CNCC(=O)O
Experiments:
Experiment in all cases: NCI anticancer screen, dose series, 48 h
HOP-92 = test system: HOP-92
DU-145 = test system: DU-145
NCI-H23 = test system: NCI-H23
HCT-15 = test system: HCT-15
HCT-116 = test system: HCT-116
SF-295 = test system: SF-295
M14 = test system: M14
OVCAR-8 = test system: OVCAR-8
NCI-H460 = test system: NCI-H460
SK-MEL-5 = test system: SK-MEL-5
SNB-75 = test system: SNB-75
MDA-MB-435 = test system: MDA-MB-435
OVCAR-4 = test system: OVCAR-4
HCC 2998 = test system: HCC 2998
PC-3 = test system: PC-3
KM12 = test system: KM12
K562 = test system: K562
RXF 393 = test system: RXF 393
SR = test system: SR
EKVX = test system: EKVX

Structure (SMILES)	GI50 (HOP-92)	GI50 (DU-145)	GI50 (NCI-H23)	GI50 (HCT-15)	GI50 (HCT-116)	GI50 (SF-295)	GI50 (M14)	GI50 (OVCAR-8)	GI50 (NCI-H460)	GI50 (SK-MEL-5)	GI50 (SNB-75)	GI50 (MDA-MB-435)	GI50 (OVCAR-4)	GI50 (HCC 2998)	GI50 (PC-3)	GI50 (KM12)	GI50 (K562)	GI50 (RXF 393)	GI50 (SR)	GI50 (EKVX)
COC(=O)C(CCCCN)NC(C)=O.Cc1ccc(C(=O)Nc2ccc(S(=O)(=O)O)c3cc(S(=O)(=O)O)cc(S(=O)(=O)O)c23)cc1NC(=O)c1cccc(NC(=O)Nc2cccc(C(=O)Nc3cc(C(=O)Nc4ccc(S(=O)(=O)O)c5cc(S(=O)(=O)O)cc(S(=O)(=O)O)c45)ccc3C)c2)c1	> 50 µM (inactive)	> 50 µM (inactive)	> 50 µM (inactive)	23.9 µM	> 50 µM (inactive)	> 50 µM (inactive)	> 50 µM (inactive)	> 50 µM (inactive)	> 50 µM (inactive)	> 50 µM (inactive)	> 50 µM (inactive)	> 50 µM (inactive)	0.5 µM (active)	> 50 µM (inactive)	> 50 µM (inactive)	> 50 µM (inactive)	> 50 µM (inactive)	37.4 µM (inactive)	> 50 µM (inactive)	–
S=C(/N=C1/NCC(CN2CCN(c3ccccc3)CC2)O1)Nc1ccccc1 (stereo unspecified)	92.3 µM (inactive)	56.9 µM (inactive)	29.3 µM (inactive)	32.4 µM	48.3 µM (inactive)	49 µM (inactive)	> 100 µM (inactive)	> 100 µM (inactive)	23.3 µM (inactive)	35.3 µM (inactive)	> 100 µM (inactive)	70.8 µM (inactive)	49.3 µM (inactive)	57.9 µM (inactive)	39.9 µM (inactive)	65.2 µM (inactive)	35.2 µM (inactive)	39.8 µM (inactive)	34.6 µM (inactive)	> 100 µM (inactive)
O=C(O)COc1cccc2ccccc(=O)c12	> 100 µM (inactive)	> 100 µM (inactive)	> 100 µM (inactive)	> 100 µM	> 100 µM (inactive)	> 100 µM (inactive)	> 100 µM (inactive)	> 100 µM (inactive)	> 100 µM (inactive)	> 100 µM (inactive)	0.0126 µM (active)	> 100 µM (inactive)	> 100 µM (inactive)	> 100 µM (inactive)	> 100 µM (inactive)	> 100 µM (inactive)	> 100 µM (inactive)	> 100 µM (inactive)	> 100 µM (inactive)	> 100 µM (inactive)
O=C1C(Br)=C(c2ccccc2)O/C1=C/C(=O)c1ccc(Br)cc1	49.1 µM (inactive)	> 100 µM (inactive)	> 100 µM (inactive)	89.9 µM	39.4 µM (inactive)	–	> 100 µM (inactive)	27 µM (inactive)	> 100 µM (inactive)	52.8 µM (inactive)	> 100 µM (inactive)	42.1 µM (inactive)	66.7 µM (inactive)	> 100 µM (inactive)	14.2 µM (inactive)	> 100 µM (inactive)	25.6 µM (inactive)	17.7 µM (inactive)	27.5 µM (inactive)	> 100 µM (inactive)
Cc1c2oc3c(C)ccc(C(=O)NC4C(=O)NC(C(C)C)C(=O)N5CC(O)CC5C(=O)N(C)CC(=O)N(C)C(C(C)C)C(=O)OC4C)c3nc-2c(C(=O)NC2C(=O)NC(C(C)C)C(=O)N3CC(O)CC3C(=O)N(C)CC(=O)N(C)C(C(C)C)C(=O)OC2C)c(N)c1=O (stereo unspecified) (I: TV[Hyp][Sar][NMeV] / II: TV[Hyp][Sar][NMeV]; ester I:1-I:C, II:1-II:C; linker I:N-II:N via Actinocin(9to1); configuration not given here)	> 1 µM (active)	> 1 µM (active)	> 1 µM (active)	> 1 µM	> 1 µM (active)	> 1 µM (active)	> 1 µM (active)	> 1 µM (active)	> 1 µM (active)	> 1 µM (active)	> 1 µM (active)	> 1 µM (active)	> 1 µM (active)	> 1 µM (active)	> 1 µM (active)	> 1 µM (active)	> 1 µM (active)	> 1 µM (active)	0.748 µM (active)	> 1 µM (active)
CCOP(=O)(OCC)/C(C#N)=C/c1cccn1CC(C)C	> 100 µM (inactive)	> 100 µM (inactive)	> 100 µM (inactive)	> 100 µM	> 100 µM (inactive)	> 100 µM (inactive)	> 100 µM (inactive)	> 100 µM (inactive)	> 100 µM (inactive)	40.9 µM (inactive)	> 100 µM (inactive)	> 100 µM (inactive)	–	> 100 µM (inactive)	93.3 µM (inactive)	89.9 µM (inactive)	39.9 µM (inactive)	> 100 µM (inactive)	> 100 µM (inactive)	> 100 µM (inactive)
C=C1C(O)C2OC(=O)C(=C)C2C(OC(=O)/C(C)=C/C)CC2(C)OC2C2OC12 (stereo unspecified)	19.4 µM (inactive)	7.14 µM (inactive)	8.28 µM (inactive)	2.55 µM	5.22 µM (inactive)	14.2 µM (inactive)	18 µM (inactive)	6.11 µM (inactive)	3.78 µM (inactive)	6.22 µM (inactive)	10.4 µM (inactive)	5.74 µM (inactive)	2.71 µM (inactive)	4.89 µM (inactive)	15.3 µM (inactive)	2.86 µM (inactive)	–	4.85 µM (inactive)	1.93 µM (inactive)	10.4 µM (inactive)
Cc1[nH]c(=O)c2oc3cc4ccccc4cc3c2c1C(=O)O	> 10 µM (inactive)	> 10 µM (inactive)	> 10 µM (inactive)	> 10 µM	–	8.99 µM (inactive)	> 10 µM (inactive)	> 10 µM (inactive)	> 10 µM (inactive)	–	> 10 µM (inactive)	> 10 µM (inactive)	> 10 µM (inactive)	> 10 µM (inactive)	> 10 µM (inactive)	> 10 µM (inactive)	–	> 10 µM (inactive)	> 10 µM (inactive)	> 10 µM (inactive)
COC(=O)/C=C(/C(=O)OC)c1c(C)c(C)c2c(C)cc(C)cc(C)c1-2	21.2 µM (inactive)	36.9 µM (inactive)	23.8 µM (inactive)	8.85 µM	17.4 µM (inactive)	20.9 µM (inactive)	8.93 µM (inactive)	46.3 µM (inactive)	29 µM (inactive)	12.6 µM (inactive)	–	4.6 µM (inactive)	76.2 µM (inactive)	21.3 µM (inactive)	28.8 µM (inactive)	32.7 µM (inactive)	> 100 µM (inactive)	26.9 µM (inactive)	45.5 µM (inactive)	59.7 µM (inactive)
CC(=O)OC1CC2(C)C(OC(C)=O)CC1C2(C)C (stereo unspecified)	> 100 µM (inactive)	> 100 µM (inactive)	> 100 µM (inactive)	> 100 µM	> 100 µM (inactive)	> 100 µM (inactive)	> 100 µM (inactive)	> 100 µM (inactive)	> 100 µM (inactive)	> 100 µM (inactive)	> 100 µM (inactive)	> 100 µM (inactive)	> 100 µM (inactive)	> 100 µM (inactive)	> 100 µM (inactive)	> 100 µM (inactive)	> 100 µM (inactive)	> 100 µM (inactive)	> 100 µM (inactive)	–
